Each block holds one molecule with its values, some of them ahead of it.
Tests used:
Experiment in all cases: KINOMEscan competition binding
TGFBR2 (human) = TGFBR2 (human) (UniProt P37173); settings: compound 10.0 µM
STK25 (human) = STK25 (human) (UniProt O00506); settings: compound 10.0 µM
RIOK2 (human) = RIOK2 (human) (UniProt Q9BVS4); settings: compound 10.0 µM
RIPK2 (human) = RIPK2 (human) (UniProt O43353); settings: compound 10.0 µM
CAMK1D (human) = CAMK1D (human) (UniProt Q8IU85); settings: compound 10.0 µM
BLK (human) = BLK (human) (UniProt P51451); settings: compound 10.0 µM
Sequence of BLK (human) (P51451 whole entry, looked up): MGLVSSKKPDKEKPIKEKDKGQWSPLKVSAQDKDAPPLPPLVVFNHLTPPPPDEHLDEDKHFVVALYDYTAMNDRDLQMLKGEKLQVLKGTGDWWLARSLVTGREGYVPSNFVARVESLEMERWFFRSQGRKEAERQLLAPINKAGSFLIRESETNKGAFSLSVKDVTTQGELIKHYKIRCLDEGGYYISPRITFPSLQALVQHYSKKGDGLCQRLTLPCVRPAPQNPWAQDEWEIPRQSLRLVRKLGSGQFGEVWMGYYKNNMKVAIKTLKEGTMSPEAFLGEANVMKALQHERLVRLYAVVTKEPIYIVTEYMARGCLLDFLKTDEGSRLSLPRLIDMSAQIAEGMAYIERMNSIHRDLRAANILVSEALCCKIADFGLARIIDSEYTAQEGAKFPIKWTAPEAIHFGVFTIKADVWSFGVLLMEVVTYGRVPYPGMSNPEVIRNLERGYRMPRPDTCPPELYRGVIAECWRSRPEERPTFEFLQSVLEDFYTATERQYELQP

DAPK1 (human) = DAPK1 (human) (UniProt P53355); settings: for kinase still bound, per cent of control: compound 10.0 µM
Sequence of DAPK1 (human) (P53355 whole entry, looked up): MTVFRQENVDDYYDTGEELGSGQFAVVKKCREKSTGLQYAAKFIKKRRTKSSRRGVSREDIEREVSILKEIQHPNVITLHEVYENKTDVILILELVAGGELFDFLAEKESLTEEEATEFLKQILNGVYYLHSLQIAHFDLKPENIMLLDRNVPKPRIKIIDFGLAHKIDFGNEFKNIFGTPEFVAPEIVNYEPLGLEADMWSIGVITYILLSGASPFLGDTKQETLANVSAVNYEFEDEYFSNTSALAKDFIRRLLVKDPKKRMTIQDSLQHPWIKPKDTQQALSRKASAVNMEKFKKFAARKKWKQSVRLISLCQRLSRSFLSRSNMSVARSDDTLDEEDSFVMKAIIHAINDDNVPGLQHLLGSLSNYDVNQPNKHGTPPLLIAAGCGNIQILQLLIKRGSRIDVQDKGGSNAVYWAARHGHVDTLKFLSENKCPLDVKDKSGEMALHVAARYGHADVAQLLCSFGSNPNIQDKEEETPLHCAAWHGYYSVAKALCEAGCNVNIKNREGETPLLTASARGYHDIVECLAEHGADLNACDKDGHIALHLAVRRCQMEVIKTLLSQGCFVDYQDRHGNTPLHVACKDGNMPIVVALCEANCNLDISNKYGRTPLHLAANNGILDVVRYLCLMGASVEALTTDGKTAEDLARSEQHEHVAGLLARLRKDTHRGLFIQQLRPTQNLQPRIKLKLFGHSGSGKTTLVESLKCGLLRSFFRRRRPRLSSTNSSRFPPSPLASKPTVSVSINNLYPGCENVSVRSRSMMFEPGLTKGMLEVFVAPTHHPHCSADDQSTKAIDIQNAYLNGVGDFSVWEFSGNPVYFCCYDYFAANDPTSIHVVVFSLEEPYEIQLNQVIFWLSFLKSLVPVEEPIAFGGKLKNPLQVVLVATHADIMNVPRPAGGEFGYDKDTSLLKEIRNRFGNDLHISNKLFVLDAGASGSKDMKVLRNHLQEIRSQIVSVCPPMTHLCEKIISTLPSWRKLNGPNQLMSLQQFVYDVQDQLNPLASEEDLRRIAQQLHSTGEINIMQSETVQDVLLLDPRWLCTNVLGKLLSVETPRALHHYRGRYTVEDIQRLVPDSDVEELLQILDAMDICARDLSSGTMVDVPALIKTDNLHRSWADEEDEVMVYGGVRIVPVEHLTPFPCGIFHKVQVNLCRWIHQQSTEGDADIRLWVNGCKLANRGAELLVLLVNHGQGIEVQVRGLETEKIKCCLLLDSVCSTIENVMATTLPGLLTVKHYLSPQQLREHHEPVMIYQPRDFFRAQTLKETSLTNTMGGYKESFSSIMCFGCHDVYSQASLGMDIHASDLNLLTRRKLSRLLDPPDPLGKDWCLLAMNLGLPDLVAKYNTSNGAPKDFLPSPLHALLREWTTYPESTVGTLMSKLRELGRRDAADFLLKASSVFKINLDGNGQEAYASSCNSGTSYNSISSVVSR

CLK1 (human) = CLK1 (human) (UniProt P49759); settings: for kinase still bound, per cent of control: compound 10.0 µM
PRKD1 (human) = PRKD1 (human) (UniProt Q15139); settings: compound 10.0 µM
BMPR1B (human) = BMPR1B (human) (UniProt O00238); settings: compound 10.0 µM
DAPK3 (human) = DAPK3 (human) (UniProt O43293); settings: compound 10.0 µM
PRKAA1 (human) = PRKAA1 (human) (UniProt Q13131); settings: compound 10.0 µM
HIPK1 (human) = HIPK1 (human) (UniProt Q86Z02); settings: compound 10.0 µM
MST4 (human) = MST4 (human) (UniProt Q9P289); settings: compound 10.0 µM
MAP4K4 (human) = MAP4K4 (human) (UniProt O95819); settings: compound 10.0 µM
MYLK4 (human) = MYLK4 (human) (UniProt Q86YV6); settings: compound 10.0 µM
LYN (human) = LYN (human) (UniProt P07948); settings: compound 10.0 µM
EPHA6 (human) = EPHA6 (human) (UniProt Q9UF33); settings: compound 10.0 µM
CHUK (human) = CHUK (human) (UniProt O15111); settings: compound 10.0 µM
RIPK1 (human) = RIPK1 (human) (UniProt Q13546); settings: compound 10.0 µM
AXL (human) = AXL (human) (UniProt P30530); settings: compound 10.0 µM
CAMKK2 (human) = CAMKK2 (human) (UniProt Q96RR4); settings: compound 10.0 µM
CSNK1E (human) = CSNK1E (human) (UniProt P49674); settings: compound 10.0 µM
PAK3 (human) = PAK3 (human) (UniProt O75914); settings: compound 10.0 µM
RPS6KA4 KD2 (human) = RPS6KA4 KD2 (human) (UniProt O75676); settings: compound 10.0 µM
Sequence of RPS6KA4 KD2 (human) (O75676 whole entry, looked up): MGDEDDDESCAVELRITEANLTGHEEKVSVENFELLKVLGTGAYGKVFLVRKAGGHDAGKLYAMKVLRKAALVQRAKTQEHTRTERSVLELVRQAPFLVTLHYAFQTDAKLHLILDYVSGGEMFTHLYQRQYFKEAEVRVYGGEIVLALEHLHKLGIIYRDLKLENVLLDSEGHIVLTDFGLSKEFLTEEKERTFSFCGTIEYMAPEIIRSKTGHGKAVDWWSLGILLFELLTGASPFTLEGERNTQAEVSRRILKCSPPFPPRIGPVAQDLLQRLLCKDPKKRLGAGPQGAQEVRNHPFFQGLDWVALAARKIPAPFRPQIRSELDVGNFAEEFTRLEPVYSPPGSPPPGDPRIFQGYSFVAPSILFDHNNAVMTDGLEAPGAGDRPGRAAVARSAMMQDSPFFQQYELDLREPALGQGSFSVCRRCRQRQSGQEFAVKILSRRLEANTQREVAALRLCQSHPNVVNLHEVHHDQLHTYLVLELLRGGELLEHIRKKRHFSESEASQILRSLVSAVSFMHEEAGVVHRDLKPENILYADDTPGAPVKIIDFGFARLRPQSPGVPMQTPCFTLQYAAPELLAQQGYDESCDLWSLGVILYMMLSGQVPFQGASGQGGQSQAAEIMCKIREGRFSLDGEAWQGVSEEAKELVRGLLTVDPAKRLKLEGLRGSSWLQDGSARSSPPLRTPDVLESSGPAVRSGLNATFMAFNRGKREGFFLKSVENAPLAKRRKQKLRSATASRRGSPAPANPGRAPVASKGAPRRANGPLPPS

KDR (human) = KDR (human) (UniProt P35968); settings: compound 10.0 µM
LATS1 (human) = LATS1 (human) (UniProt O95835); settings: compound 10.0 µM
DYRK1B (human) = DYRK1B (human) (UniProt Q9Y463); settings: compound 10.0 µM
NTRK3 (human) = NTRK3 (human) (UniProt Q16288); settings: compound 10.0 µM
CSNK1G2 (human) = CSNK1G2 (human) (UniProt P78368); settings: compound 10.0 µM
RIOK3 (human) = RIOK3 (human) (UniProt O14730); settings: compound 10.0 µM
Sequence of RIOK3 (human) (O14730 whole entry, looked up): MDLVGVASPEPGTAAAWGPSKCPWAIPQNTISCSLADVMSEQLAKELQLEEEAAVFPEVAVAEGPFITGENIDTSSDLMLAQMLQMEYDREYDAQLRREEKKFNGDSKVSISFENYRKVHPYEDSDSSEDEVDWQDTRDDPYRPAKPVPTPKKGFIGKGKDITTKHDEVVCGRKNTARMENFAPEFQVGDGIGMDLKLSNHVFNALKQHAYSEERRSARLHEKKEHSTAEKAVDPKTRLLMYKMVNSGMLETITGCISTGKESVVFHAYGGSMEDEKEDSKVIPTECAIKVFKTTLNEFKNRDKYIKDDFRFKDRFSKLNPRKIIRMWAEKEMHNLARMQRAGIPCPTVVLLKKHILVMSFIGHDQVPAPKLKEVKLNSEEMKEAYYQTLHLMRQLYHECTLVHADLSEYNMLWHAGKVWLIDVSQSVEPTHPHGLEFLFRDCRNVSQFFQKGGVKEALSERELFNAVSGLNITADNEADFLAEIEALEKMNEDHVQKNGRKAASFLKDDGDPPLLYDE

CDKL2 (human) = CDKL2 (human) (UniProt Q92772); settings: compound 10.0 µM
PRKACA (human) = PRKACA (human) (UniProt P17612); settings: compound 10.0 µM
PAK2 (human) = PAK2 (human) (UniProt Q13177); settings: compound 10.0 µM
KIT (human) = KIT (human) (UniProt P10721); settings: compound 10.0 µM
Sequence of KIT (human) (P10721 whole entry, looked up): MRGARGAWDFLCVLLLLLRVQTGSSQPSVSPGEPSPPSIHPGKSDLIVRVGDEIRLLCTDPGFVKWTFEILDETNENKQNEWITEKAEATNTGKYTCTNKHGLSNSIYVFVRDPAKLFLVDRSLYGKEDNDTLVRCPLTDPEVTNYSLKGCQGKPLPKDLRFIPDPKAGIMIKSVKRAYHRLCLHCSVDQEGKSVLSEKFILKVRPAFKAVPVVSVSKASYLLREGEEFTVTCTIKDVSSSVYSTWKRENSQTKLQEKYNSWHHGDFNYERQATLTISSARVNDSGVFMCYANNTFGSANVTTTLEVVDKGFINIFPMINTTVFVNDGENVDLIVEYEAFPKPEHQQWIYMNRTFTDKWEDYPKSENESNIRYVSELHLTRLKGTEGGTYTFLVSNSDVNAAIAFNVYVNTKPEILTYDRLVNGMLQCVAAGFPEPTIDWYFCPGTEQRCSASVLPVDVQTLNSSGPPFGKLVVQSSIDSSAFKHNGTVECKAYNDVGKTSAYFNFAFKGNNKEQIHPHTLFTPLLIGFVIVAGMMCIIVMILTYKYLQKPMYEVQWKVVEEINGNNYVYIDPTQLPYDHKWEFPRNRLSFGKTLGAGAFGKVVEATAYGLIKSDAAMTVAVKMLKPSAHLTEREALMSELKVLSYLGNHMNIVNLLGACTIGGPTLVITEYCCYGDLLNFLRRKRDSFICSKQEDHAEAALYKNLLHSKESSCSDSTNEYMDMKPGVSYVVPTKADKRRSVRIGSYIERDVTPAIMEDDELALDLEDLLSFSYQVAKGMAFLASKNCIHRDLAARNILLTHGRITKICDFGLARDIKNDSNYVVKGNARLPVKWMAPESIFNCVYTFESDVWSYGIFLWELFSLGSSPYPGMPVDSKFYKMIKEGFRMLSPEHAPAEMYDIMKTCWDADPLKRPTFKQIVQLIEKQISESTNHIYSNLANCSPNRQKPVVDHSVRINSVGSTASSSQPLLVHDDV

MAPK11 (human) = MAPK11 (human) (UniProt Q15759); settings: compound 10.0 µM
TESK1 (human) = TESK1 (human) (UniProt Q15569); settings: compound 10.0 µM
EPHA5 (human) = EPHA5 (human) (UniProt P54756); settings: compound 10.0 µM
[1] = system: FLT3 (human), P36888 [K663Q]; settings: compound 10.0 µM
SYK (human) = SYK (human) (UniProt P43405); settings: compound 10.0 µM
[2] = biological target: JAK3 JH1 catalytic (human) (UniProt P52333); settings: compound 10.0 µM
STK4 (human) = STK4 (human) (UniProt Q13043); settings: compound 10.0 µM

Sequence of RIPK2 (human) (O43353 whole entry, looked up): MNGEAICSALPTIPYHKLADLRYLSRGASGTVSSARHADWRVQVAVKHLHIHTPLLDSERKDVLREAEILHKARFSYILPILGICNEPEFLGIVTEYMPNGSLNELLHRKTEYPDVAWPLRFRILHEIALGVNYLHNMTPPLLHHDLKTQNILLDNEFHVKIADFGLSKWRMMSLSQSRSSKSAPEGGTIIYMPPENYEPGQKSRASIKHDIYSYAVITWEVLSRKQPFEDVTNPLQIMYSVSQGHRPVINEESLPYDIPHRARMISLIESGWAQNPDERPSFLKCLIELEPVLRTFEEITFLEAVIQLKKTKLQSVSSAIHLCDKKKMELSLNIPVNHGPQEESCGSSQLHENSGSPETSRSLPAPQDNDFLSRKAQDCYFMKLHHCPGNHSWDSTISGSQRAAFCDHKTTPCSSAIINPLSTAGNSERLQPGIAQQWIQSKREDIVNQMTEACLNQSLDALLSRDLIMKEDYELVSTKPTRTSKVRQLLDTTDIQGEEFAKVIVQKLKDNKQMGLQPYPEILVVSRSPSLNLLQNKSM

kinase still bound, per cent of control (TGFBR2 (human)): 100%
kinase still bound, per cent of control (STK25 (human)): 99%
kinase still bound, per cent of control (RIOK2 (human)): 100%
kinase still bound, per cent of control (RIPK2 (human)): 100%
kinase still bound, per cent of control (CAMK1D (human)): 87%
kinase still bound, per cent of control (BLK (human)): 100%
kinase still bound, per cent of control (DAPK1 (human)): 44%
kinase still bound, per cent of control (CLK1 (human)): 73%
kinase still bound, per cent of control (PRKD1 (human)): 12%
kinase still bound, per cent of control (BMPR1B (human)): 88%
kinase still bound, per cent of control (DAPK3 (human)): 37%
kinase still bound, per cent of control (PRKAA1 (human)): 84%
kinase still bound, per cent of control (HIPK1 (human)): 73%
kinase still bound, per cent of control (MST4 (human)): 99%
kinase still bound, per cent of control (MAP4K4 (human)): 57%
kinase still bound, per cent of control (MYLK4 (human)): 100%
kinase still bound, per cent of control (LYN (human)): 92%
kinase still bound, per cent of control (EPHA6 (human)): 82%
kinase still bound, per cent of control (CHUK (human)): 79%
kinase still bound, per cent of control (RIPK1 (human)): 100%
kinase still bound, per cent of control (AXL (human)): 100%
kinase still bound, per cent of control (CAMKK2 (human)): 60%
kinase still bound, per cent of control (CSNK1E (human)): 92%
kinase still bound, per cent of control (PAK3 (human)): 58%
kinase still bound, per cent of control (RPS6KA4 KD2 (human)): 17%
kinase still bound, per cent of control (KDR (human)): 79%
kinase still bound, per cent of control (LATS1 (human)): 100%
kinase still bound, per cent of control (DYRK1B (human)): 54%
kinase still bound, per cent of control (NTRK3 (human)): 93%
kinase still bound, per cent of control (CSNK1G2 (human)): 100%
kinase still bound, per cent of control (RIOK3 (human)): 92%
kinase still bound, per cent of control (CDKL2 (human)): 100%
kinase still bound, per cent of control (PRKACA (human)): 100%
kinase still bound, per cent of control (PAK2 (human)): 67%
kinase still bound, per cent of control (KIT (human)): 91%
kinase still bound, per cent of control (MAPK11 (human)): 74%
kinase still bound, per cent of control (TESK1 (human)): 100%
kinase still bound, per cent of control (EPHA5 (human)): 88%
kinase still bound, per cent of control [1]: 96%
kinase still bound, per cent of control (SYK (human)): 100%
kinase still bound, per cent of control [2]: 86%
kinase still bound, per cent of control (STK4 (human)): 78%
SMILES: COc1cc(N2CCC(O)CC2)ccc1Nc1ncc2c(n1)N1CCc3cccc(c31)C(=O)N2C

kinase still bound, per cent of control (TGFBR2 (human)): 100%
kinase still bound, per cent of control (STK25 (human)): 100%
kinase still bound, per cent of control (RIOK2 (human)): 71%
kinase still bound, per cent of control (RIPK2 (human)): 100%
kinase still bound, per cent of control (CAMK1D (human)): 100%
kinase still bound, per cent of control (BLK (human)): 100%
kinase still bound, per cent of control (DAPK1 (human)): 100%
kinase still bound, per cent of control (CLK1 (human)): 100%
kinase still bound, per cent of control (PRKD1 (human)): 100%
kinase still bound, per cent of control (BMPR1B (human)): 100%
kinase still bound, per cent of control (DAPK3 (human)): 95%
kinase still bound, per cent of control (PRKAA1 (human)): 100%
kinase still bound, per cent of control (HIPK1 (human)): 100%
kinase still bound, per cent of control (MST4 (human)): 100%
kinase still bound, per cent of control (MAP4K4 (human)): 100%
kinase still bound, per cent of control (MYLK4 (human)): 100%
kinase still bound, per cent of control (LYN (human)): 100%
kinase still bound, per cent of control (EPHA6 (human)): 100%
kinase still bound, per cent of control (CHUK (human)): 95%
kinase still bound, per cent of control (RIPK1 (human)): 100%
kinase still bound, per cent of control (AXL (human)): 100%
kinase still bound, per cent of control (CAMKK2 (human)): 100%
kinase still bound, per cent of control (CSNK1E (human)): 100%
kinase still bound, per cent of control (PAK3 (human)): 76%
kinase still bound, per cent of control (RPS6KA4 KD2 (human)): 100%
kinase still bound, per cent of control (KDR (human)): 88%
kinase still bound, per cent of control (LATS1 (human)): 74%
kinase still bound, per cent of control (DYRK1B (human)): 100%
kinase still bound, per cent of control (NTRK3 (human)): 72%
kinase still bound, per cent of control (CSNK1G2 (human)): 100%
kinase still bound, per cent of control (RIOK3 (human)): 69%
kinase still bound, per cent of control (CDKL2 (human)): 100%
kinase still bound, per cent of control (PRKACA (human)): 100%
kinase still bound, per cent of control (PAK2 (human)): 100%
kinase still bound, per cent of control (KIT (human)): 76%
kinase still bound, per cent of control (MAPK11 (human)): 100%
kinase still bound, per cent of control (TESK1 (human)): 100%
kinase still bound, per cent of control (EPHA5 (human)): 100%
kinase still bound, per cent of control [1]: 100%
kinase still bound, per cent of control (SYK (human)): 100%
kinase still bound, per cent of control [2]: 100%
kinase still bound, per cent of control (STK4 (human)): 71%
SMILES: CN1C(=O)c2ccccc2N(C)c2nc(NS(=O)(=O)c3ccc(N)cc3)ncc21

kinase still bound, per cent of control (TGFBR2 (human)): 18%
kinase still bound, per cent of control (STK25 (human)): 77%
kinase still bound, per cent of control (RIOK2 (human)): 66%
kinase still bound, per cent of control (RIPK2 (human)): 9.9%
kinase still bound, per cent of control (CAMK1D (human)): 48%
kinase still bound, per cent of control (BLK (human)): 100%
Kd (DAPK1 (human)): 0.0095 µM
kinase still bound, per cent of control (DAPK1 (human)): 0.35%
Kd (CLK1 (human)): 0.24 µM
kinase still bound, per cent of control (CLK1 (human)): 0.3%
kinase still bound, per cent of control (PRKD1 (human)): 8.2%
kinase still bound, per cent of control (BMPR1B (human)): 4.8%
kinase still bound, per cent of control (DAPK3 (human)): 1%
kinase still bound, per cent of control (PRKAA1 (human)): 59%
kinase still bound, per cent of control (HIPK1 (human)): 3.5%
kinase still bound, per cent of control (MST4 (human)): 80%
kinase still bound, per cent of control (MAP4K4 (human)): 4.9%
kinase still bound, per cent of control (LYN (human)): 77%
kinase still bound, per cent of control (EPHA6 (human)): 97%
kinase still bound, per cent of control (CHUK (human)): 53%
kinase still bound, per cent of control (RIPK1 (human)): 82%
kinase still bound, per cent of control (AXL (human)): 24%
kinase still bound, per cent of control (CAMKK2 (human)): 31%
kinase still bound, per cent of control (CSNK1E (human)): 11%
kinase still bound, per cent of control (PAK3 (human)): 86%
kinase still bound, per cent of control (RPS6KA4 KD2 (human)): 3.2%
kinase still bound, per cent of control (KDR (human)): 100%
kinase still bound, per cent of control (LATS1 (human)): 84%
kinase still bound, per cent of control (DYRK1B (human)): 3%
kinase still bound, per cent of control (NTRK3 (human)): 88%
kinase still bound, per cent of control (CSNK1G2 (human)): 3.6%
kinase still bound, per cent of control (RIOK3 (human)): 3.4%
kinase still bound, per cent of control (CDKL2 (human)): 67%
kinase still bound, per cent of control (PRKACA (human)): 100%
kinase still bound, per cent of control (PAK2 (human)): 53%
kinase still bound, per cent of control (KIT (human)): 82%
kinase still bound, per cent of control (MAPK11 (human)): 82%
kinase still bound, per cent of control (TESK1 (human)): 100%
kinase still bound, per cent of control (EPHA5 (human)): 100%
kinase still bound, per cent of control [1]: 92%
kinase still bound, per cent of control (SYK (human)): 100%
kinase still bound, per cent of control [2]: 4%
kinase still bound, per cent of control (STK4 (human)): 96%
SMILES: O=C1NC(=O)/C(=C/c2c[nH]c(=O)c(-c3ccc(N4CCNCC4)nc3)c2)S1

kinase still bound, per cent of control (TGFBR2 (human)): 5.2%
kinase still bound, per cent of control (STK25 (human)): 20%
kinase still bound, per cent of control (RIOK2 (human)): 3.4%
kinase still bound, per cent of control (CAMK1D (human)): 28%
kinase still bound, per cent of control (DAPK1 (human)): 9.6%
kinase still bound, per cent of control (CLK1 (human)): 5.6%
kinase still bound, per cent of control (DAPK3 (human)): 7.4%
kinase still bound, per cent of control (HIPK1 (human)): 3.4%
kinase still bound, per cent of control (MAP4K4 (human)): 25%
kinase still bound, per cent of control (MYLK4 (human)): 0.25%
kinase still bound, per cent of control (CHUK (human)): 8.4%
kinase still bound, per cent of control (CAMKK2 (human)): 14%
kinase still bound, per cent of control (CSNK1E (human)): 7%
kinase still bound, per cent of control (KDR (human)): 21%
kinase still bound, per cent of control (DYRK1B (human)): 13%
kinase still bound, per cent of control (NTRK3 (human)): 32%
kinase still bound, per cent of control (RIOK3 (human)): 5.5%
kinase still bound, per cent of control (PAK2 (human)): 31%
kinase still bound, per cent of control (KIT (human)): 21%
kinase still bound, per cent of control [1]: 14%
kinase still bound, per cent of control [2]: 21%
SMILES: O=C1NC(=S)S/C1=C\c1ccc(-c2cncc3ccccc23)o1
